In patent publication US20240317683A1, “METHODS OF TREATING MOOD DISORDERS” (priority 2020, published 2024):
Counter-ions that a name gives are not always drawn. Like-named read-outs stand apart in the source and are kept apart here.

Experiments:
[1] = system: monoamine oxidase A and B (MAO-A and MAO-B); test: Stability in the presence of monoamine oxidases (human liver mitochondria); format: in vitro ADME; details: for MAO stability (in words): human liver mitochondria preparation; for half-life at 1 μM / microsomal CLint at 1 μM: human liver mitochondria, pH 7.4; for half-life at 1 μM / microsomal CLint at 1 μM / Remaining (t = 60 min): human mitochondrial preparation, 1 μM
Experimental: Liver Mitochondria Incubations. Human liver mitochondria (Xenotech H0610.M) were used. Mitochondrial incubations were carried out in multi-well plates. […] Six time points over 60 minutes were analyzed.

[2] = Pharmacokinetics in mice, plasma; format: in vivo, C57BL/6 mice; details: for AUC(0-t) / clearance / half-life / Cmax / Tmax: male, C57BL/6, mouse plasma; for F: mouse, based on plasma AUC0-last
Experimental: Animals. Male C57BL/6 mice, aged 8-12 weeks, were used in these studies. Four mice were housed in each cage. Temperature and humidity were maintained at 22±3° C. and 30-70%, respectively, and illumination was controlled to give a 12 h light and 12 h dark cycle. Temperature and humidity were recorded by an auto-controlled data logger system. All animals were provided laboratory rodent diet. Reverse osmosis water treated with ultraviolet light was provided ad libitum. Animals were randomly assigned to treatment groups.
Drugs. Compounds 4 and 5 were prepared as described above. All other compounds were commercially obtained. Test compounds were used as the hydrogen fumarate (1 and 2) or hydrochloride (3, 4, and 5) salts and were dissolved in a vehicle consisting of normal saline. They were then administered intravenously (IV) via the tail vein, subcutaneously (SC), or orally (PO) via gavage at a dose of 1 or 10 mg/kg (calculated based on the free base) and at a volume of 5 ml/kg body weight.
Sample Collection and Bioanalysis. Blood samples (approximately 60 μL) were collected under light isoflurane anesthesia (Surgivet®) from the retro orbital plexus at 0.08, 0.25, 0.5, 1, 2, 4, 8, and 24 h (4 animals per time point). Immediately after blood collection, plasma was harvested by centrifugation at 4,000 rpm for 10 min at 4° C. and samples were stored at −70±10° C. until bioanalysis. Following blood collection, animals were immediately sacrificed, the abdominal vena-cava was cut open, and the whole body was perfused from the heart using 10 mL of normal saline, and brain samples were collected from all animals. After isolation, brain samples were rinsed three times in ice-cold normal saline (for 5-10 seconds/rinse using ˜5-10 mL normal saline in disposable petri dish for each rinse) and dried on blotting paper. Brain samples were homogenized using ice-cold phosphate-buffered saline (pH 7.4). Total homogenate volume was three times the tissue weight. All homogenates were stored at −70±10° C. until bioanalysis. For bioanalysis, 25 μL aliquots of plasma/brain study samples or spiked plasma/brain calibration standards were added to individual pre-labeled micro-centrifuge tubes followed by 100 μL of an internal standard solution (glipizide, 500 ng/ml in acetonitrile) except for blanks, where 100 μL of acetonitrile was added. Samples were vortexed for 5 minutes and then centrifuged for 10 minutes at 4,000 rpm at 4° C. Following centrifugation, 100 μL of each clear supernatant was transferred to a 96 well plate and analyzed with a fit-for-purpose LC-MS/MS method, with authentic samples of each analyte used for calibration and identification.
Data Analysis. Pharmacokinetic parameters were estimated using the non-compartmental analysis tool of Phoenix® WinNonlin software (Ver 8.0).

5-HT2A = 5-HT2A (Homo sapiens (Human), UniProt P28223); test: FLIPR Ca2+ flux agonist assay, 5-HT2A; format: cell-based; details: for 5-HT2A % Act @ Max Dose / EC50: HEK293
Experimental: (§1) A solution of 250 mM probenecid in 1 mL FLIPR assay buffer was prepared fresh. This was combined with a fluorescent dye (Fluo-4 Direct™) to make a final assay concentration of 2.5 mM. […] The fluorescent dye was then added to the assay plate along with assay buffer to a final volume of 40 μL. The cell plate was incubated for 50 min at 37° C. and 5% CO2 and placed into the FLIPR Tetra along with the compound plate. 10 μL of references and compounds were then transferred from the compound plate into the cell plate and the fluorescent signal was read.

[3] = Metabolic stability in mouse liver microsomes (MLM); format: in vitro ADME, CD-1 mice; details: CD-1, mouse, pooled mouse liver microsomes, pH 7.4, NADPH
Experimental: (§2) MLM Stability. Pooled MLM from CD-1 mice (BIOIVT M00501) were used. Microsomal incubations were carried out in multi-well plates. […] Control incubations were performed by replacing the NADPH-cofactor system with PBS. Test compounds (1 μM, final solvent concentration 1.0%) were incubated with microsomes at 37° C. with constant shaking. Six time points over 60 minutes were analyzed, with 60 μL aliquots of the reaction mixture being drawn at each time point.

[4] = target: serotonin transporter (SERT) (Homo sapiens (Human), UniProt P31645); test: SERT fluorescent substrate uptake inhibition in transfected HEK293 cells; format: cell-based; details: HEK293 cells expressing SERT
Experimental: SERT Uptake Inhibition. The ability of test compounds to block monoamine uptake by SERT was determined using the Neurotransmitter Transporter Uptake Assay Kit manufactured by Molecular Devices (Cat #R8173). Briefly, stably transfected HEK293 cells expressing SERT were grown and plated into 384-well plates at a concentration of 20,000 cells per well. Plates were then incubated for 16-20 h at 37° C. and 5% CO2. The medium was then aspirated and replaced with 25 μL of assay buffer (20 mM HEPES in HBSS, containing 0.1% BSA) containing the test compounds at the appropriate concentrations. Plates were then centrifuged at 300 rpm for 15 s and then incubated at 37° C. for 30 minutes. At this time, 25 μL of the proprietary fluorescent dye solution was added, the plates were incubated at 37°° C. for 60 minutes, and then fluorescence was quantified on a plate reader (excitation wavelength =440 nm, emission wavelength=520 nm). The proprietary dye solution contains a mixture of 1) a fluorescent dye (dye 1) that mimics the endogenous substrate of SERT and is thereby actively transported to the intracellular compartment in the absence of an inhibitor and 2) a masking dye that inhibits the fluorescence of dye 1 in the extracellular compartment. Therefore, the overall fluorescence of the system increases as the fluorescent dye is transported into the cells.

5-HT1A = 5-HT1A (Homo sapiens (Human), UniProt P08908); test: FLIPR Ca2+ flux agonist assay, 5-HT1A; format: cell-based
Experimental: as §1

[5] = Metabolic stability in human liver microsomes (HLM); format: in vitro ADME; details: both sexes, pooled human liver microsomes, pH 7.4, NADPH
Experimental: as §2, with “HLM” for “MLM”, “adult male and female donors (Corning 452117)” for “CD-1 mice (BIOIVT M00501)”

[6] = IV, 10 mg/kg, read-out: Cmax (C0 back-extrapolated to t = 0)

| SMILES | MAO stability (in words) [1] | half-life at 1 μM [1] [min] | microsomal CLint at 1 μM [1] [µL/min/mg] | Remaining (t = 60 min) [1] [%] | 5-HT2A % Act @ Max Dose (5-HT2A) [%] | half-life at 1 μM [3] [min] | microsomal CLint at 1 μM [3] [µL/min/mg] | IC50 [4] [µM] | SERT % Inhibition @ Max Dose [4] [%] | EC50 (5-HT1A) [µM] | 5-HT1A % Act @ Max Dose (5-HT1A; Ca2+ flux, CHO cells) [%] | half-life at 1 μM [5] [min] | microsomal CLint at 1 μM [5] [µL/min/mg] | EC50 (5-HT2A) [µM] | also measured |
| --- | --- | --- | --- | --- | --- | --- | --- | --- | --- | --- | --- | --- | --- | --- | --- |
| CCN(C)CCc1c[nH]c2ccccc12 [Compound 2, methylethyltryptamine] | intermediate stability | > 145 | < 15.9 | 84.5 | 36.2 | 102 | 13.6 | 9.13 | 62.06 | 59.5 | 73.6 | 126 | 11.2 |  | AUC(0-t) ([2]; IV, 10 mg/kg): 545 ng·h/mL; clearance ([2]; IV, 10 mg/kg): 304 mL/min/kg; half-life ([2]; IV, 10 mg/kg): 88.8 min; Cmax [2, 6]: 963 ng/mL; AUC(0-t) ([2]; oral, 10 mg/kg): 238 ng·h/mL; Tmax ([2]; oral, 10 mg/kg): 15 min; half-life ([2]; oral, 10 mg/kg): 82.2 min; Cmax ([2]; oral, 10 mg/kg, read-out: Cmax): 102 ng/mL; F ([2]; oral, 10 mg/kg): 44%; Emax (5-HT2A): 36.2%; selectivity for 5-HT2A over 5-HT2B (in words) (5-HT2A): highly selective |
| CN(C)CCc1c[nH]c2ccccc12 [DMT, N,N-dimethyltryptamine, reference compound] | highly metabolized | 17.1 | 135 | 8.9 | 93.4 | 69.1 | 20.1 | 2.96 | 67.92 |  | 68.1 | 7 |  |  |  |
| CCCN(CC)CCc1c[nH]c2ccccc12 [Compound 1, ethylpropyltryptamine] | highly stable | > 145 | < 15.9 | 95.1 |  | 6 | 231 | 0.75 | 75.35 | 88.7 | 75.5 | 21.7 | 64.3 | 0.0305 | AUC(0-t) ([2]; IV, 10 mg/kg): 844 ng·h/mL; clearance ([2]; IV, 10 mg/kg): 197 mL/min/kg; half-life ([2]; IV, 10 mg/kg): 114 min; Cmax [2, 6]: 3820 ng/mL; AUC(0-t) ([2]; oral, 10 mg/kg): 22.1 ng·h/mL; Tmax ([2]; oral, 10 mg/kg): 4.8 min; half-life ([2]; oral, 10 mg/kg): 113 min; Cmax ([2]; oral, 10 mg/kg, read-out: Cmax): 20.3 ng/mL; F ([2]; oral, 10 mg/kg): 2.6% |
| CCCN(CC)CCc1c[nH]c2ccc(F)cc12 [Compound 3, N-ethyl-N-(2-(5-fluoro-1H-indol-3-yl)ethyl) propan-1-amine hydrochloride] | highly stable | > 145 | < 15.9 | 97.7 | 104.1 | 5.5 | 250 |  |  | 19.6 | 88.34 | 13 | 106 | 0.00553 | selectivity for 5-HT2A over 5-HT2B (in words) (5-HT2A): little selectivity |
| CN(C)CCc1c[nH]c2cccc(O)c12 [Psilocin, psilocin, reference compound] | highly stable | > 145 | < 15.9 | 112.1 |  | 127 | 10.9 | 2.04 | 88.15 | > 3.16 | 0.720 | 110 |  |  | AUC(0-t) ([2]; IV, 1 mg/kg): 79.9 ng·h/mL; clearance ([2]; IV, 1 mg/kg): 204 mL/min/kg; half-life ([2]; IV, 1 mg/kg): 66 min; Cmax ([2]; IV, 1 mg/kg, read-out: Cmax (C0 back-extrapolated to t = 0)): 195 ng/mL; AUC(0-t) ([2]; oral, 1 mg/kg): 51.1 ng·h/mL; Tmax ([2]; oral, 1 mg/kg): 10.2 min; half-life ([2]; oral, 1 mg/kg): 118 min; Cmax ([2]; oral, 1 mg/kg, read-out: Cmax): 85.9 ng/mL; F ([2]; oral, 1 mg/kg): 64% |
| CCN(C)CCc1c[nH]c2cccc(O)c12 [Compound 6] | highly stable | > 145 | < 15.9 | 112.3 | 103.0 | > 145 | < 9.6 | 3.27 | 84.02 |  | 72.96 | > 145 | < 9.6 | 0.0151 | AUC(0-t) ([2]; SC, 10 mg/kg): 1410 ng·h/mL; Tmax ([2]; SC, 10 mg/kg): 4.8 min; half-life ([2]; SC, 10 mg/kg): 66 min; Cmax ([2]; SC, 10 mg/kg, read-out: Cmax): 1160 ng/mL; EC50 (5-HT1A; Ca2+ flux, CHO cells, read-out: 5-HT1A EC50): 14.7 µM |
| CN(C)CCc1c[nH]c2ccc(F)cc12 [Compound 5, 2-(5-fluoro-1H-indol-3-yl)-N,N-dimethylethan-1-amine hydrochloride] | highly metabolized | 8.7 | 266 | 0.9 |  | 27.3 | 50.8 |  |  |  |  | 4.6 | 300 |  | AUC(0-t) ([2]; SC, 1 mg/kg): 11 ng·h/mL; Tmax ([2]; SC, 1 mg/kg): 4.8 min; Cmax ([2]; SC, 1 mg/kg, read-out: Cmax): 41.6 ng/mL; AUC(0-t) ([2]; SC, 10 mg/kg): 247 ng·h/mL; Tmax ([2]; SC, 10 mg/kg): 15 min; half-life ([2]; SC, 10 mg/kg): 16.2 min; Cmax ([2]; SC, 10 mg/kg, read-out: Cmax): 363 ng/mL |
